Experimental data as given in patent US20230085307A1, “PYRIDAZINONE COMPOUND AND HERBICIDE” (NISSAN CHEMICAL CORPORATION, priority 2019, published 2023).

Experiments:
barnyard grass [1] = experiment: Test Example 3: herbicidal effect by foliage application, Wagner pot (Table 18, symbol H); type: in vivo, barnyard grass (Echinochloa crus-galli); details: amount of applied herbicide 320 g/ha
Outline: (§1)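 Plants were sown in alluvial soil held under 0.1–0.5 cm standing water and grown 14 days in a greenhouse at 25–30 °C. An emulsifiable formulation, water-diluted to the set dose, was then sprayed onto the foliage, and effects were scored three weeks later using previously defined criteria.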

Chinese sprangletop = experiment: Test Example 3: herbicidal effect by foliage application, Wagner pot (Table 18, symbol D); type: in vivo, chinese sprangletop (Leptochloa chinensis); details: amount of applied herbicide 320 g/ha
Outline: as §1

rice flat sedge = experiment: Test Example 3: herbicidal effect by foliage application, Wagner pot (Table 18, symbol E); type: in vivo, rice flat sedge (Cyperus iria); details: amount of applied herbicide 320 g/ha
Outline: as §1

southern crabgrass [2] = experiment: Test Example 4: herbicidal effect by soil treatment (Table 19, symbol F); type: in vivo, southern crabgrass (Digitaria ciliaris); details: amount of applied herbicide 320 g/ha
Outline: (§2)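 In this soil treatment, the formulated compound reached the seeds only through the soil: seeds were buried about 1.5 cm deep in sterilized diluvial soil, then the diluted emulsion was sprayed over the surface. After three weeks at 25° C. to 30° C. in a greenhouse, effects were graded on criteria from an earlier test.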

green foxtail [3] = experiment: Test Example 4: herbicidal effect by soil treatment (Table 19, symbol G); type: in vivo, green foxtail (Setaria viridis); details: amount of applied herbicide 320 g/ha
Outline: as §2

barnyard grass [4] = experiment: Test Example 4: herbicidal effect by soil treatment (Table 19, symbol H); type: in vivo, barnyard grass (Echinochloa crus-galli); details: amount of applied herbicide 320 g/ha
Outline: as §2

wild oat [5] = experiment: Test Example 4: herbicidal effect by soil treatment (Table 19, symbol I); type: in vivo, wild oat (Avena fatua); details: amount of applied herbicide 320 g/ha
Outline: as §2

blackgrass [6] = experiment: Test Example 4: herbicidal effect by soil treatment (Table 19, symbol J); type: in vivo, blackgrass (Alopecurus myosuroides); details: amount of applied herbicide 320 g/ha
Outline: as §2

Italian ryegrass [7] = experiment: Test Example 4: herbicidal effect by soil treatment (Table 19, symbol K); type: in vivo, Italian ryegrass (Lolium multiflorum); details: amount of applied herbicide 320 g/ha
Outline: as §2

windgrass [8] = experiment: Test Example 4: herbicidal effect by soil treatment (Table 19, symbol L); type: in vivo, windgrass (Apera spica-venti); details: amount of applied herbicide 320 g/ha
Outline: as §2

velvetleaf [9] = experiment: Test Example 4: herbicidal effect by soil treatment (Table 19, symbol M); type: in vivo, velvetleaf (Abutilon theophrasti); details: amount of applied herbicide 320 g/ha
Outline: as §2

redroot pigweed [10] = experiment: Test Example 4: herbicidal effect by soil treatment (Table 19, symbol N); type: in vivo, redroot pigweed (Amaranthus retroflexus); details: amount of applied herbicide 320 g/ha
Outline: as §2

lambsquarters [11] = experiment: Test Example 4: herbicidal effect by soil treatment (Table 19, symbol O); type: in vivo, lambsquarters (Chenopodium album); details: amount of applied herbicide 320 g/ha
Outline: as §2

chickweed [12] = experiment: Test Example 4: herbicidal effect by soil treatment (Table 19, symbol P); type: in vivo, common chickweed (Stellaria media); details: amount of applied herbicide 320 g/ha
Outline: as §2

persian speedwell [13] = experiment: Test Example 4: herbicidal effect by soil treatment (Table 19, symbol R); type: in vivo, Persian speedwell (Veronica persica); details: amount of applied herbicide 320 g/ha
Outline: as §2

southern crabgrass [14] = experiment: Test Example 5: herbicidal effect by foliage application, plastic box (Table 20, symbol F); type: in vivo, southern crabgrass (Digitaria ciliaris); details: foliage application, 320 g/ha, evaluated three weeks after application
Outline: (§3)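 Plants were sown into sterilized diluvial soil under about 1.5 cm cover and kept in a greenhouse at 25° C. to 30° C. Fourteen days on, foliage received an even spray of the diluted emulsion. Herbicidal or crop effect was judged three weeks afterwards.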

green foxtail [15] = experiment: Test Example 5: herbicidal effect by foliage application, plastic box (Table 20, symbol G); type: in vivo, green foxtail (Setaria viridis); details: foliage application, 320 g/ha, evaluated three weeks after application
Outline: as §3

barnyard grass [16] = experiment: Test Example 5: herbicidal effect by foliage application, plastic box (Table 20, symbol H); type: in vivo, barnyard grass (Echinochloa crus-galli); details: foliage application, 320 g/ha, evaluated three weeks after application
Outline: as §3

wild oat [17] = experiment: Test Example 5: herbicidal effect by foliage application, plastic box (Table 20, symbol I); type: in vivo, wild oat (Avena fatua); details: foliage application, 320 g/ha, evaluated three weeks after application
Outline: as §3

blackgrass [18] = experiment: Test Example 5: herbicidal effect by foliage application, plastic box (Table 20, symbol J); type: in vivo, blackgrass (Alopecurus myosuroides); details: foliage application, 320 g/ha, evaluated three weeks after application
Outline: as §3

Italian ryegrass [19] = experiment: Test Example 5: herbicidal effect by foliage application, plastic box (Table 20, symbol K); type: in vivo, Italian ryegrass (Lolium multiflorum); details: foliage application, 320 g/ha, evaluated three weeks after application
Outline: as §3

windgrass [20] = experiment: Test Example 5: herbicidal effect by foliage application, plastic box (Table 20, symbol L); type: in vivo, windgrass (Apera spica-venti); details: foliage application, 320 g/ha, evaluated three weeks after application
Outline: as §3

velvetleaf [21] = experiment: Test Example 5: herbicidal effect by foliage application, plastic box (Table 20, symbol M); type: in vivo, velvetleaf (Abutilon theophrasti); details: foliage application, 320 g/ha, evaluated three weeks after application
Outline: as §3

redroot pigweed [22] = experiment: Test Example 5: herbicidal effect by foliage application, plastic box (Table 20, symbol N); type: in vivo, redroot pigweed (Amaranthus retroflexus); details: foliage application, 320 g/ha, evaluated three weeks after application
Outline: as §3

lambsquarters [23] = experiment: Test Example 5: herbicidal effect by foliage application, plastic box (Table 20, symbol O); type: in vivo, lambsquarters (Chenopodium album); details: foliage application, 320 g/ha, evaluated three weeks after application
Outline: as §3

chickweed [24] = experiment: Test Example 5: herbicidal effect by foliage application, plastic box (Table 20, symbol P); type: in vivo, common chickweed (Stellaria media); details: foliage application, 320 g/ha, evaluated three weeks after application
Outline: as §3

persian speedwell [25] = experiment: Test Example 5: herbicidal effect by foliage application, plastic box (Table 20, symbol R); type: in vivo, Persian speedwell (Veronica persica); details: foliage application, 320 g/ha, evaluated three weeks after application
Outline: as §3

In the case of `Cc1nn(C)c(=O)c(-c2c(-c3cccc(C(F)(F)F)c3)sc3ccc(F)cc23)c1O` [2-231], the “herbicidal effect on H: barnyard grass” value (barnyard grass [1]) is reported as 4 (Herbicidal rate of 70% or more and less than 90%), the “herbicidal effect on D: Chinese sprangletop” value (Chinese sprangletop) is reported as 3 (Herbicidal rate of 40% or more and less than 70%) and the “herbicidal effect on E: rice flat sedge” value (rice flat sedge) is reported as 5 (Herbicidal rate of 90% or more (almost completely withered)). For the same compound, the “herbicidal effect on F: southern crabgrass” value (southern crabgrass [2]) was 0 (Herbicidal rate of 5% or less (almost no effect)), the “herbicidal effect on G: green foxtail” value (green foxtail [3]) was 0 (Herbicidal rate of 5% or less (almost no effect)) and the “herbicidal effect on H: barnyard grass” value (barnyard grass [4]) was 0 (Herbicidal rate of 5% or less (almost no effect)). For the same compound, the “herbicidal effect on I: wild oat” value (wild oat [5]) was 0 (Herbicidal rate of 5% or less (almost no effect)), the “herbicidal effect on J: blackgrass” value (blackgrass [6]) was 0 (Herbicidal rate of 5% or less (almost no effect)) and the “herbicidal effect on K: Italian ryegrass” value (Italian ryegrass [7]) was 0 (Herbicidal rate of 5% or less (almost no effect)). For the same compound, the “herbicidal effect on L: windgrass” value (windgrass [8]) was 0 (Herbicidal rate of 5% or less (almost no effect)), the “herbicidal effect on M: velvetleaf” value (velvetleaf [9]) was 0 (Herbicidal rate of 5% or less (almost no effect)) and the “herbicidal effect on N: redroot pigweed” value (redroot pigweed [10]) was 0 (Herbicidal rate of 5% or less (almost no effect)). For the same compound, the “herbicidal effect on O: lambsquarters” value (lambsquarters [11]) was 1 (Herbicidal rate of 5% or more and less than 20%), the “herbicidal effect on P: chickweed” value (chickweed [12]) was 3 (Herbicidal rate of 40% or more and less than 70%) and the “herbicidal effect on R: persian speedwell” value (persian speedwell [13]) was 0 (Herbicidal rate of 5% or less (almost no effect)). For the same compound, the “herbicidal effect on F: southern crabgrass (criteria 0-5)” value (southern crabgrass [14]) was 0 (Herbicidal rate of 5% or less (almost no effect)), the “herbicidal effect on G: green foxtail (criteria 0-5)” value (green foxtail [15]) was 3 (Herbicidal rate of 40% or more and less than 70%) and the “herbicidal effect on H: barnyard grass (criteria 0-5)” value (barnyard grass [16]) was 2 (Herbicidal rate of 20% or more and less than 40%). The “herbicidal effect on I: wild oat (criteria 0-5)” value (wild oat [17]) was 0 (Herbicidal rate of 5% or less (almost no effect)), the “herbicidal effect on J: blackgrass (criteria 0-5)” value (blackgrass [18]) was 0 (Herbicidal rate of 5% or less (almost no effect)) and the “herbicidal effect on K: Italian ryegrass (criteria 0-5)” value (Italian ryegrass [19]) was 0 (Herbicidal rate of 5% or less (almost no effect)). The “herbicidal effect on L: windgrass (criteria 0-5)” value (windgrass [20]) was 4 (Herbicidal rate of 70% or more and less than 90%), the “herbicidal effect on M: velvetleaf (criteria 0-5)” value (velvetleaf [21]) was 4 (Herbicidal rate of 70% or more and less than 90%) and the “herbicidal effect on N: redroot pigweed (criteria 0-5)” value (redroot pigweed [22]) was 3 (Herbicidal rate of 40% or more and less than 70%). The “herbicidal effect on O: lambsquarters (criteria 0-5)” value (lambsquarters [23]) was 3 (Herbicidal rate of 40% or more and less than 70%), the “herbicidal effect on P: chickweed (criteria 0-5)” value (chickweed [24]) was 5 (Herbicidal rate of 90% or more (almost completely withered)) and the “herbicidal effect on R: persian speedwell (criteria 0-5)” value (persian speedwell [25]) was 4 (Herbicidal rate of 70% or more and less than 90%).
